{
  "source": "ChEMBL document CHEMBL6153155",
  "about": "“Novel Cyclohexyl Amido Acid Antagonists of Lysophosphatidic Acid Type 1 Receptor for the Treatment of Pulmonary Fibrosis” (ACS Med Chem Lett, 2025)",
  "key": {"[1]": {"experiment": "Toxicity in cynomolgus monkey assessed as abnormally cold to touch at 210 mg/kg/day, po bid measured after 4 days", "format": "organism-based, Macaca fascicularis", "details": "in vivo, 96 h, time 4 day"}, "[2]": {"experiment": "Tlast in female C57BL/6J mouse lung at 30 mg/kg, po measured after 24 hrs by UPLC-MS/MS analysis", "format": "ADME, organism-based", "details": "in vivo"}, "[3]": {"target": "T1, Lysophosphatidic acid receptor 3 (Homo sapiens, UniProt Q9UBY5)", "T1 sequence (Q9UBY5 whole entry)": "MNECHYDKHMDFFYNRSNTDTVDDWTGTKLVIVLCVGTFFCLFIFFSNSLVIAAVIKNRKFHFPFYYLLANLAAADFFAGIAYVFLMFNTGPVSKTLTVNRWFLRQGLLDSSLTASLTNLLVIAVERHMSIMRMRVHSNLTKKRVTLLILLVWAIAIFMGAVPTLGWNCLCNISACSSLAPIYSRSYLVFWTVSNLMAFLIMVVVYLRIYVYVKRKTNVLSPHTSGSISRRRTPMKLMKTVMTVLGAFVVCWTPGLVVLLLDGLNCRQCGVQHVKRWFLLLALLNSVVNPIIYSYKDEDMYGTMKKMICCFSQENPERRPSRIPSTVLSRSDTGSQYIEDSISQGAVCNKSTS", "experiment": "Antagonist activity at human LPA3 expressed in human HeLa cells incubated for 30 mins by FLIPR-based calcium mobilization assay", "format": "functional, cell-based"}, "[4]": {"experiment": "Toxicity in cynomolgus monkey assessed as fasciculation at 210 mg/kg/day, po bid measured after 4 days", "format": "organism-based, Macaca fascicularis", "details": "in vivo, 96 h, time 4 day"}, "[5]": {"experiment": "Unbound Cmax in female C57BL/6J mouse plasma at 30 mg/kg, po measured after 24 hrs by UPLC-MS/MS analysis", "format": "ADME, organism-based", "details": "in vivo"}, "[6]": {"experiment": "Toxicity in cynomolgus monkey assessed as partially closed eyelids at 210 mg/kg/day, po bid measured after 4 days", "format": "organism-based, Macaca fascicularis", "details": "in vivo, 96 h, time 4 day"}, "[7]": {"experiment": "Toxicity in cynomolgus monkey assessed as appearance of sinusoidal leukocytosis in liver at 50 mg/kg, po bid by microscopic analysis", "format": "organism-based, Macaca fascicularis", "details": "in vivo"}, "[8]": {"target": "T2, ATP-binding cassette sub-family C member 4 (Homo sapiens, UniProt O15439)", "T2 sequence (O15439 whole entry)": "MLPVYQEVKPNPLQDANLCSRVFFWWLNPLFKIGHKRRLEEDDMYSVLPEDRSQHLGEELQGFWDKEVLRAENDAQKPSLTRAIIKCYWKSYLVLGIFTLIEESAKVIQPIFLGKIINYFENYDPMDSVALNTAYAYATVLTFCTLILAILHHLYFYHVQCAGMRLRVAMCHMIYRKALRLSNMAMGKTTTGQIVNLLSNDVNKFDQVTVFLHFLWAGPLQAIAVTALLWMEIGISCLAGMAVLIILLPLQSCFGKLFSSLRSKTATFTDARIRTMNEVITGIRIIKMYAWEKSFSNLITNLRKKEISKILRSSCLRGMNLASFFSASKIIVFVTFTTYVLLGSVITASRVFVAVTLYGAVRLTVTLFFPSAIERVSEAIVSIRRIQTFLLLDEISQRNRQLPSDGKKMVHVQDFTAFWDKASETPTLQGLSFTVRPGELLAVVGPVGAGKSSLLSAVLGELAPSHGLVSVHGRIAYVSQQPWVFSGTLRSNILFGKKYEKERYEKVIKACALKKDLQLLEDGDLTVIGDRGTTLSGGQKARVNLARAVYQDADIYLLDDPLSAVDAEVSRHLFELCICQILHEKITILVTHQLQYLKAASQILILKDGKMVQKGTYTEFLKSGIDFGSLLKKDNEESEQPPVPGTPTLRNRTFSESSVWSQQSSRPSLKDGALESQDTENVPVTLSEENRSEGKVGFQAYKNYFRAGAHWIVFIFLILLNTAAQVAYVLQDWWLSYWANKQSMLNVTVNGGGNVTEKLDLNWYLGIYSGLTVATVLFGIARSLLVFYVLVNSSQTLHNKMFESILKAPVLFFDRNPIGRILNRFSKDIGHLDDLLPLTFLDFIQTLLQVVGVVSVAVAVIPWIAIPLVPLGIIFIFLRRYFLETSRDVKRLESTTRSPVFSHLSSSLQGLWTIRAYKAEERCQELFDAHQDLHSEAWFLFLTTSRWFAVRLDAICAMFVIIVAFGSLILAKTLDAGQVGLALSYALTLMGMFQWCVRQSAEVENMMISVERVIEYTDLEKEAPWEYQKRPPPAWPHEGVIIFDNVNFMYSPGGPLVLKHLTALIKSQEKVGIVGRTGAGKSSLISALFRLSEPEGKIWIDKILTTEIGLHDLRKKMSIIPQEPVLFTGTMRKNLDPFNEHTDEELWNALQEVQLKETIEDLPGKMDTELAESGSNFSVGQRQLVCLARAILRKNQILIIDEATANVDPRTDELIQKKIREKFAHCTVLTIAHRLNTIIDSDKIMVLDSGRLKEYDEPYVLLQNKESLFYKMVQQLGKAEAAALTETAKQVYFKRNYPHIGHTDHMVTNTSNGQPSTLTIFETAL", "experiment": "Inhibition of MRP4 (unknown origin) in presence of ATP by membrane vesicular transport assay", "format": "cell membranes, Membrane vesicle"}, "[9]": {"experiment": "Oral bioavailability in female C57BL/6J mouse at 2 mg/kg, iv measured after 24 hrs by UPLC-MS/MS analysis", "format": "ADME, organism-based", "details": "in vivo"}, "[10]": {"experiment": "Tlast in female C57BL/6J mouse plasma at 30 mg/kg, po measured after 24 hrs by UPLC-MS/MS analysis", "format": "ADME, organism-based", "details": "in vivo"}, "[11]": {"experiment": "Unbound AUClast in female C57BL/6J mouse plasma at 30 mg/kg, po measured after 24 hrs by UPLC-MS/MS analysis", "format": "ADME, organism-based", "details": "in vivo"}, "[12]": {"target": "Phosphatidylcholine translocator ABCB4 (Homo sapiens, UniProt P21439)", "sequence (P21439 whole entry)": "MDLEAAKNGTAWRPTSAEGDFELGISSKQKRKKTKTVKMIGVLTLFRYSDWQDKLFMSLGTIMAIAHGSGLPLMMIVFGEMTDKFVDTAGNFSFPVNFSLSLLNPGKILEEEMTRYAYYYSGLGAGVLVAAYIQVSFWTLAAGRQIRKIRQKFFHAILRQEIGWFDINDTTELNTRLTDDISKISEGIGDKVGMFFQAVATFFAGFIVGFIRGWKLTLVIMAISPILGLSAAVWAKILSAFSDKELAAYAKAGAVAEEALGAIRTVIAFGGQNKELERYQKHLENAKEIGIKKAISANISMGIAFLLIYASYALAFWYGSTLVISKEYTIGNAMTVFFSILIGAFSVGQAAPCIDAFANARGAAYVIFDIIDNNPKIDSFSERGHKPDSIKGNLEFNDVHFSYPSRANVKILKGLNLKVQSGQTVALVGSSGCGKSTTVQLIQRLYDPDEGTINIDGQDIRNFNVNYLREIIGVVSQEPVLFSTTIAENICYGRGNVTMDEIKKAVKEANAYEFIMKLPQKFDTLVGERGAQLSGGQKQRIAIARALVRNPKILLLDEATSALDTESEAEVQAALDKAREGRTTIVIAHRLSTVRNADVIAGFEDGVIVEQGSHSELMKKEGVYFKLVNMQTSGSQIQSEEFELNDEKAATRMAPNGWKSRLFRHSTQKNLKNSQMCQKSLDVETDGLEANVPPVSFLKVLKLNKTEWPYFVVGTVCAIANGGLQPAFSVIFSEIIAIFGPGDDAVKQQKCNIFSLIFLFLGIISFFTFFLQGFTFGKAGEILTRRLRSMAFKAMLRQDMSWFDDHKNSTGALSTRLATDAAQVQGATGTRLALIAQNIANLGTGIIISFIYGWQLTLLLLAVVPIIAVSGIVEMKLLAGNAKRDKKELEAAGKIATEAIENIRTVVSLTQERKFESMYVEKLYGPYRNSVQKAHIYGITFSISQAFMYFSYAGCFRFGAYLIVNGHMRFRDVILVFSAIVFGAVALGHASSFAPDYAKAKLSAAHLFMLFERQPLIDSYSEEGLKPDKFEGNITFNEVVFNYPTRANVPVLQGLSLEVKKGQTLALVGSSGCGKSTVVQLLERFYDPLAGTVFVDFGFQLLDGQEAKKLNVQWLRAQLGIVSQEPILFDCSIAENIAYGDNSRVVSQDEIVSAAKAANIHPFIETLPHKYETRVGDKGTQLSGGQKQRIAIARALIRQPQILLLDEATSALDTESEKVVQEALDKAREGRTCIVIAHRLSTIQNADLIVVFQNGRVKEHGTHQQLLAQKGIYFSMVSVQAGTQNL", "experiment": "Inhibition of MDR3 in human hepatocytes in the presence of TCA incubated for 3 hrs by LC-MS/MS", "format": "cell-based, Hepatocyte"}, "[13]": {"experiment": "Unbound Cmax in female C57BL/6J mouse lung at 30 mg/kg, po measured after 24 hrs by UPLC-MS/MS analysis", "format": "ADME, organism-based", "details": "in vivo"}, "[14]": {"experiment": "Total AUClast in female C57BL/6J mouse plasma at 30 mg/kg, po measured after 24 hrs by UPLC-MS/MS analysis", "format": "ADME, organism-based", "details": "in vivo"}, "BSEP": {"target": "BSEP (Homo sapiens, UniProt O95342)", "sequence (O95342 whole entry)": "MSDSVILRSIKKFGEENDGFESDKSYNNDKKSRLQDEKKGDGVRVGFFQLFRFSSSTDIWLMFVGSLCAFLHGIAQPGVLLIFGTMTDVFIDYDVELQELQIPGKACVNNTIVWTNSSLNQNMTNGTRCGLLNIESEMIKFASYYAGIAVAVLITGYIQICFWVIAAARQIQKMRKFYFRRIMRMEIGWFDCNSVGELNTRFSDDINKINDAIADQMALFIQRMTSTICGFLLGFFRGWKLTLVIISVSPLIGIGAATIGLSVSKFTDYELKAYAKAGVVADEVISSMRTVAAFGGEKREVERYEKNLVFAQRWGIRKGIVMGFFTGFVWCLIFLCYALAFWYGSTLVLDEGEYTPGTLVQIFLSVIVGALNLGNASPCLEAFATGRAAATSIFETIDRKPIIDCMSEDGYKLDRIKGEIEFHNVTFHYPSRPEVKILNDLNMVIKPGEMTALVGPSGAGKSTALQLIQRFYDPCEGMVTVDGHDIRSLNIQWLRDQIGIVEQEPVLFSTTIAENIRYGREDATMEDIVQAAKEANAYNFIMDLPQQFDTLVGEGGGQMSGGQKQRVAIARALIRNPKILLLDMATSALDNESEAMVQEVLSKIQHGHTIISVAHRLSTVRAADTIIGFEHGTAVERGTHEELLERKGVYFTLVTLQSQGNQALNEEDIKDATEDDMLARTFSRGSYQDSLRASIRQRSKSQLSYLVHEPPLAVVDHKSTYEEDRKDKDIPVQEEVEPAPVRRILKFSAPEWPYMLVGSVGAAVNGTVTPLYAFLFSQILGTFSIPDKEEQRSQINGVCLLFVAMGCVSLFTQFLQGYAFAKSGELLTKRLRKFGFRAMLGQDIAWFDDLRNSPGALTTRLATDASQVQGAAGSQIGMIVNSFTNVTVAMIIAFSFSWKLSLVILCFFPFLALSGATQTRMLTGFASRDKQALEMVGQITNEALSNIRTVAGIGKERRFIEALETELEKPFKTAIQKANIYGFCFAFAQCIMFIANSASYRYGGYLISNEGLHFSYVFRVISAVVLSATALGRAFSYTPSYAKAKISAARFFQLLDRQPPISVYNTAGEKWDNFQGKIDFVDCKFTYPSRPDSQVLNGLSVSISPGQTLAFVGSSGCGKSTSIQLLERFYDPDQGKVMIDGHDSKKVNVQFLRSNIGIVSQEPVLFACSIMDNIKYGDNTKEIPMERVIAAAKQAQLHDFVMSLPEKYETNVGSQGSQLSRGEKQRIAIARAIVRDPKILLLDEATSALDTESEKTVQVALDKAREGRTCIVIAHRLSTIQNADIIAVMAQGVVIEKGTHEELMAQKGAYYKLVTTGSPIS", "experiment": "Inhibition of BSEP in cryopreserved sandwich-cultured human hepatocytes by measuring reduction in TCA biliary clearance using taurocholic acid as substrate at 50 uM relative to control", "format": "cell-based, Hepatocyte", "details": "cryopreserved sandwich-cultured hepatocytes, probe taurocholic acid"}, "[15]": {"experiment": "Unbound AUClast in female C57BL/6J mouse lung at 30 mg/kg, po measured after 24 hrs by UPLC-MS/MS analysis", "format": "ADME, organism-based", "details": "in vivo"}, "[16]": {"experiment": "Total AUClast in female C57BL/6J mouse lung at 30 mg/kg, po measured after 24 hrs by UPLC-MS/MS analysis", "format": "ADME, organism-based", "details": "in vivo"}, "[17]": {"experiment": "Total Cmax in female C57BL/6J mouse lung at 30 mg/kg, po measured after 24 hrs by UPLC-MS/MS analysis", "format": "ADME, organism-based"}, "[18]": {"target": "Lysophosphatidic acid receptor 4 (Homo sapiens, UniProt Q99677)", "sequence (Q99677 whole entry)": "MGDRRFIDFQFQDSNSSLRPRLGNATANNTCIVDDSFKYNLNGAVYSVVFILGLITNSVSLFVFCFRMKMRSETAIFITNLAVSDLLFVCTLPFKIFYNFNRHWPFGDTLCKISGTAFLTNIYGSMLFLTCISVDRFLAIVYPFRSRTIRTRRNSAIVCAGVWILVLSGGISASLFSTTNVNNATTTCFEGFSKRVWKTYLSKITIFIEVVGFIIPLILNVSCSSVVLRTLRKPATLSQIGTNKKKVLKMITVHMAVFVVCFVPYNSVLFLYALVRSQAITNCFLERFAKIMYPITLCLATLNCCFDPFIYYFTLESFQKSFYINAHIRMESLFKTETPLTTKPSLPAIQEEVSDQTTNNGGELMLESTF", "experiment": "Antagonist activity at human LPA4 expressed in CHO cells in presence of IBMX pretreated for 30 mins followed by LPA addition and measured after 1 hrs by cAMP accumulation assay", "format": "functional, cell-based"}},
  "data": [
    {"compound": "Cc1nc(-c2onc(C)c2NC(=O)O[C@H](C)c2ccccc2Cl)ccc1NC(=O)[C@H]1CCCC[C@@H]1C(=O)O", "values": [
      {"measurement": "Activity", "setting": "[1]", "value": "Toxic"},
      {"measurement": "Tlast", "setting": "[2]", "value": 24, "unit": "h"},
      {"measurement": "IC50", "setting": "[3]", "value": 37.2, "unit": "µM"},
      {"measurement": "Activity", "setting": "[4]", "value": "Toxic"},
      {"measurement": "fCmax", "setting": "[5]", "value": 1479, "unit": "ng/mL"},
      {"measurement": "Activity", "setting": "[6]", "value": "Toxic"},
      {"measurement": "Activity", "setting": "[7]", "value": "Toxic"},
      {"measurement": "IC50", "setting": "[8]", "value": 63.1, "unit": "µM"},
      {"measurement": "bioavailability", "setting": "[9]", "value": 100, "unit": "%"},
      {"measurement": "Tlast", "setting": "[10]", "value": 24, "unit": "h"},
      {"measurement": "fAUClast", "setting": "[11]", "value": 3675, "unit": "h/ng/mL"},
      {"measurement": "IC50", "setting": "[12]", "value": 251, "unit": "µM"},
      {"measurement": "fCmax", "setting": "[13]", "value": 1553, "unit": "ng/mL"},
      {"measurement": "AUClast", "setting": "[14]", "value": 247000, "unit": "h/ng/mL"},
      {"measurement": "inhibition at 50 µM", "setting": "BSEP", "value": 50, "unit": "%"},
      {"measurement": "fAUClast", "setting": "[15]", "value": 4624, "unit": "h/ng/mL"},
      {"measurement": "AUClast", "setting": "[16]", "value": 123000, "unit": "h/ng/mL"},
      {"measurement": "Cmax", "setting": "[17]", "value": 41300, "unit": "ng/mL"},
      {"measurement": "IC50", "setting": "[18]", "value": 12.6, "unit": "µM"}
    ]}
  ]
}
